One experiment has as its system CFPAC-1. The experiment in a line: Cell viability (CellTiter-Glo) IC50 on tumor cell lines. The class given is cell-based. The following applies: Homo sapiens, 72 h; CFPAC-1, 3 days of culture; read-out: Inhibitory effect on cell line (IC50). How it is done: (§1) The inhibitory effect of isoquinoline compounds on various tumor cell lines was detected using cell activity detection reagent.
(§2) Cell viability was detected using the Promega CellTiter-Glo kit, the kit reflected cell viability by directly measuring intracellular ATP content. In this experiment, the IC50 values of isoquinoline compounds on various tumor cell lines was determined.
(§3) Tumor cells were cultured in 10% FBS-containing medium (+p/s), and incubated for 3 h or the following day, then the gradient diluted isoquinoline compound was added. After 3 days of culture, the relevant IC50 (50% inhibiting concentration) was measured. The name, source and culture conditions of each tumor cell line were as follows: • Cell line NCI-H82 (ATCC, No. HTB-175) was cultured in 10% fetal bovine serum-containing RPMI1640 medium (+P/S). • Cell line G-401 (ATCC, No. CRL-1441) was cultured in 10% fetal bovine serum-containing McCoy's 5a medium (+P/S). • Cell line MDA-MB-453 (ATCC, No. HTB-131) was cultured in 10% fetal bovine serum-containing Leibovit's L-15 medium (+P/S). • Cell line SW48 (ATCC, No. CCL-231) was cultured in 10% fetal bovine serum-containing Leibovitz's L-15 medium (+P/S). • Cell line CFPAC-1 (ATCC, No. CRL-1918) was cultured in 10% fetal bovine serum-containing IMDM medium (+P/S). • Cell line 786-O (ATCC, No. CRL-1932) was cultured in 10% fetal bovine serum-containing RPMI1640 medium (+P/S). • Cell line GB-I (JCRB, No. IFO50489) was cultured in 10% fetal bovine serum-containing DMEM medium (+P/S). • Cell line SF126 (JCRB, No. IFO50286) was cultured in 10% fetal bovine serum-containing EMEM medium (+P/S).

Another experiment concerns SW48. The experiment is described as above. The format is cell-based. The following applies: Homo sapiens, 72 h; SW48, 3 days of culture; read-out: Inhibitory effect on cell line (IC50). How it is done:
as §1, §2, §3

For another experiment, the system named is G-401. The experiment is described as above. The format is cell-based. The following applies: Homo sapiens, 72 h; G-401, 3 days of culture; read-out: Inhibitory effect on cell line (IC50). How it is done:
as §1, §2, §3

In another experiment the test system is MDA-MB-453. The experiment is described as above. The class given is cell-based. The following applies: Homo sapiens, 72 h; MDA-MB-453, 3 days of culture; read-out: Inhibitory effect on cell line (IC50). How it is done: as §1, §2, §3
For the next experiment, the system named is 786-O. Described as above. The following applies: Homo sapiens, 786-0, 72 h, 3 days of culture, read-out: Inhibitory effect on cell line (IC50). The class given is cell-based. How it is done: as §1, §2, §3
In the next experiment the test system is GB-1. The experiment is described as above. The class given is cell-based. The following applies: Homo sapiens, 72 h; GB-1, 3 days of culture; read-out: Inhibitory effect on cell line (IC50). How it is done:
as §1, §2, §3

The subject of a further experiment is SF-126. Described as above. The class given is cell-based. The note with it: Homo sapiens, 72 h; SF-126, 3 days of culture; read-out: Inhibitory effect on cell line (IC50). How it is done:
as §1, §2, §3

Experiment [1] concerns NCI-H82 cell with knockdown of DNMT1 expression (sh-DNMT1 #1, sh-DNMT1 #2). As to the kind of experiment: Sensitivity of NCI-H82 cell after knockdown of DNMT1 expression (intracellular ATP detection). The class given is cell-based, human. The following applies: DNMT1 expression knocked down (sh-DNMT1 #1 or #2), compared with Vector; FIG. 11. An excerpt:
(§4) The NCI-H82 cell overexpressing NNMT protein was obtained by inserting the NNMT gene into NCI-1-182 cell using a viral vector. The expression of DNMT1 in NCI-H82 cells was knocked down using shRNA transfection. The changes in sensitivity of cell to isoquinoline compounds was investigated using intracellular ATP detection methods after overexpression of NNMT protein and/or knockdown of DNMT1 expression. The experiment result was shown in FIG. 11, wherein, “Vector” referred to NCI-1182 cell transfected with empty virus as control group.

The test system of another experiment is NCI-H82. As to the kind of experiment: Cell viability (CellTiter-Glo) IC50 on tumor cell lines. The class given is cell-based, human. The following applies: NCI-H82, 3 days of culture, read-out: Inhibitory effect on cell line (IC50). How it is done:
as §1, §2, §3
In general terms: Cellular ATP, detected with luciferase, serves as a proxy for viable cell number.

The subject of experiment [2] is NCI-H82 cell overexpressing NNMT protein (ov-NNMT). The experiment in a line: Sensitivity of NCI-H82 cell after overexpression of NNMT protein (intracellular ATP detection). The class given is cell-based, human. The note with it: NNMT protein overexpressed alone (ov-NNMT), compared with Vector; FIG. 11.
From the text: as §4

In experiment [3] the test system is NCI-H82 ov-NNMT/sh-DNMT1 tumor. As to the kind of experiment: Inhibitory effect on subcutaneous NCI-H82 ov-NNMT/sh-DNMT1 tumor in nude mice. The class given is in vivo. The following applies: nude mice inoculated with ov-NNMT/sh-DNMT1, intraperitoneally 10 mg/kg/day, compared with NCI-H82 tumor; FIG. 15. An excerpt:
(§5) To verify whether the cells sensitive to isoquinoline compounds still maintained the sensitivity to isoquinoline compounds in vivo, inhibitory effect of berberine hydrochloride on tumor-bearing mice subcutaneously inoculated with sensitive cells (NCI-H82) was detected.
(§6) 5×10^6 of normal NCI-H82 cells, NCI-H82 cells with overexpression of NNMT protein and […] of DNMT1 (i.e. ov-NNMT/sh-DNMT1, the method for overexpressing NNMT protein and knocking down DNMT1 expression was shown in Example 13) were subcutaneously inoculated in nude mice to establish tumor-bearing mice. Each group of tumor-bearing mice was injected intraperitoneally with the berberine hydrochloride at a dose of 10 mg/kg/day, the change of tumor volume size over time was measured, and the tumors were removed and photographed in each group of mice at the end of the experiment to investigate the inhibitory effect of berberine hydrochloride on the tumor. The mice in control group was injected intraperitoneally with solvent vehicle in the same method, and the tumor volume was calculated as follows: tumor volume=½ length×width^2.

For experiment [4], the system named is NCI-H82 cell ov-NNMT/sh-DNMT1 #1 and ov-NNMT/sh-DNMT1 #2. As to the kind of experiment: Sensitivity of NCI-H82 cell after overexpression of NNMT and knockdown of DNMT1 (intracellular ATP detection). The class given is cell-based, human. The note with it: NNMT overexpressed and DNMT1 knocked down simultaneously; FIG. 11.
From the text: as §4

The subject of another experiment is NCI-H82 tumor. As to the kind of experiment: Inhibitory effect on subcutaneous NCI-H82 tumor in nude mice. The note with it: nude mice inoculated with NCI-H82, intraperitoneally 10 mg/kg/day; FIG. 14. The format is in vivo.
From the text: as §5, §6

The next experiment has as its system D341 Med. As to the kind of experiment: Cell viability (CellTiter-Glo) IC50 on brain tumor cell lines. The note with it: 72 h, 3 days of culture, read-out: Inhibitory effect on brain tumor cell line (IC50). The format is cell-based. How it is done: (§7) The inhibitory effect of isoquinoline compounds on various brain tumor cell lines was detected using cell activity detection reagents.
(§8) Cell viability was detected using the Promega CeliTiter-Glo kit, the kit reflected cell viability by directly measuring intracellular ATP content. In this experiment, the IC50 values of isoquinoline compounds on various brain tumor cell lines was determined.
(§9) Brain tumor cells were cultured in 10% FBS-containing medium (+p/s), and incubated for 3 h or the following day, the gradient diluted isoquinoline compound was added. After 3 days of culture, the relevant IC50 (50% inhibiting concentration) was measured. The name, source and culture conditions of each brain tumor cell line were as follows: • Cell line D341 Med (ATCC, No. HTB-187) was cultured in 20% fetal bovine serum-containing EMEM medium (+P/S). • Cell line Kelly (ECACC, No. 92110411) was cultured in RPMI1640 medium containing 10% fetal bovine serum and 2 mM glutamine; • Cell line NB-I (ATCC, No. HTB-131) was cultured in 10% fetal bovine serum-containing Leibovitz's L-15 medium (+P/S).

The test system of a further experiment is Kelly. The description is as above. The format is cell-based. The note with it: 72 h, 3 days of culture, read-out: Inhibitory effect on brain tumor cell line (IC50). As for the experimental part: as §7, §8, §9
The test system of another experiment is NB-1. Described as above. The format is cell-based. The following applies: Homo sapiens, NB1, 72 h; NB-1, 3 days of culture; read-out: Inhibitory effect on brain tumor cell line (IC50). How it is done: as §7, §8, §9

Each structure is given as a SMILES string. Counter-ions that a name gives are not always drawn. Like-named read-outs stand apart in the source and are kept apart here.

As to `COc1ccc2cc3[n+](cc2c1OC)CCc1cc2c(cc1-3)OCO2` [Berberine hydrochloride, reference compound], the IC50 (usually the midpoint of a concentration-inhibition curve) with CFPAC-1 came to 9.5 µM; in the experiment with SW48, 1.26 µM; in the experiment on G-401, 1.12 µM; with MDA-MB-453, 0.94 µM; with 786-O, 15.3 µM; in the experiment on GB-1 it was 19.6 µM. Moreover, the IC50 with SF-126 was 21.3 µM; in the experiment on NCI-H82 (Homo sapiens, 72 h), 0.51 µM; in the experiment with D341 Med it was 4.5 µM; in the experiment on Kelly, 4.1 µM; in the experiment on NB-1, 1.7 µM. The “Sensitivity of NCI-H82 cell to the compound” value in experiment [1] and in experiment [2] was “decreased” each time. Also, the entries for the “Inhibitory effect on subcutaneous tumor (tumor volume)” value (in experiment [3]; with NCI-H82 tumor) were “significantly weaker” and “significantly inhibit”, respectively. Also, in experiment [4], the “Sensitivity of NCI-H82 tumor cells to the compound” value is reported as “decreased more significantly”.
Regarding `CCCOc1c(OC)ccc2cc3[n+](cc12)CCc1cc2c(cc1-3)OCO2` [Compound BBR-A1], the concentration for half-maximal inhibition (IC50) amounted to 8.3 µM in the experiment with CFPAC-1; 0.2 µM with SW48; 1 µM in the experiment with G-401; 0.8 µM in the experiment on MDA-MB-453; 16.3 µM in the experiment on 786-O; 9.1 µM in the experiment on GB-1. Further, the half-inhibitory concentration (IC50) in the experiment on SF-126 amounted to 7.5 µM; in the experiment on NCI-H82 (Homo sapiens, 72 h) it was 0.4 µM; in the experiment with D341 Med, 1 µM; in the experiment with Kelly it was 1.3 µM; with NB-1, 0.3 µM.
As for `c1c2c(cc3c1OCO3)-c1cc3ccc4c(c3c[n+]1CC2)OCO4` [Coptisine hydrochloride], the IC50 in the experiment with CFPAC-1 is 22.1 µM; with SW48, 6 µM; in the experiment on G-401 it was 3.4 µM; with MDA-MB-453, 1.6 µM; in the experiment on 786-O, more than 30 µM; with GB-1 it was 24.8 µM. The concentration for half-maximal inhibition (IC50) with SF-126 was more than 30 µM; in the experiment on NCI-H82, 1.8 µM; in the experiment with D341 Med, 2.8 µM; in the experiment with Kelly, 4.4 µM; in the experiment on NB-1 it was 2.5 µM.
`Cc1c2[n+](cc3cc4c(cc13)OCO4)CCc1cc3c(cc1-2)OCO3` [worenine]: the IC50 in the experiment on CFPAC-1 is more than 30 µM; with SW48 it was 9.6 µM; in the experiment with G-401, 2.3 µM; in the experiment on MDA-MB-453, 1.3 µM; in the experiment with 786-O, more than 30 µM; with GB-1, more than 30 µM. In addition, the concentration for half-maximal inhibition (IC50) with SF-126 was more than 30 µM; with NCI-H82 (Homo sapiens, 72 h), 4.3 µM; in the experiment with D341 Med it was 4.8 µM; in the experiment on Kelly, 3.9 µM; in the experiment on NB-1, 2.6 µM.
On to `COc1ccc2cc3[n+](cc2c1OCC(=O)OC(C)(C)C)CCc1cc2c(cc1-3)OCO2` [Compound BBR-A5], for which the IC50 in the experiment with CFPAC-1 was determined as 17.7 µM; in the experiment with SW48 it was 1.8 µM; in the experiment on G-401 it was 1.1 µM; in the experiment with MDA-MB-453, 0.7 µM; in the experiment on 786-O, 18.5 µM; in the experiment on GB-1 it was 9.2 µM. The half-inhibitory concentration (IC50) in the experiment on SF-126 worked out at 15.5 µM; with NCI-H82 (Homo sapiens, 72 h), 0.5 µM; with D341 Med it was 1.5 µM; with Kelly it was 1.8 µM; with NB-1, 0.3 µM.
As to `C=CCOc1c(OC)ccc2cc3[n+](cc12)CCc1cc2c(cc1-3)OCO2` [Compound BBR-A2], the concentration for half-maximal inhibition (IC50) in the experiment with CFPAC-1 turned out to be 14.9 µM; with SW48, 3.2 µM; in the experiment on G-401, 1.6 µM; in the experiment with MDA-MB-453, 1.3 µM; in the experiment on 786-O it was 37.1 µM; with GB-1, 11.2 µM. Further, the half-inhibitory concentration (IC50) in the experiment on SF-126 came to 22.6 µM; with NCI-H82 (Homo sapiens, 72 h), 0.7 µM; with D341 Med, 1.7 µM; with Kelly, 2.1 µM; in the experiment on NB-1, 0.6 µM.

(Values after patent US20230404996A1, “APPLICATION OF ISOQUINOLINE COMPOUND IN TUMOR TREATMENT” (NANJIANG SHIJIANG MEDICINE TECHNOLOGY CO., LTD, priority 2020, published 2023).)
